# Laboratory results published in ChEMBL document CHEMBL3351946, “Design and synthesis of potent antitumor water-soluble phenyl N-mustard-benzenealkylamide conjugates via a bioisostere approach” (Eur J Med Chem, 2014).
# pIC50: −log10 of the molar value. Calls of active or inactive are those of the source. The calls are words filed in the database; no cut-off is given here.
# How the values were obtained:
# [1] = Cytotoxicity against human PC3 cells assessed as growth inhibition after 72 hrs by Alamar Blue assay; assay type: functional, cell-based; conditions: PC-3, 72 h
# HT-29 = assay: Cytotoxicity against human HT-29 cells assessed as growth inhibition after 72 hrs by Alamar Blue assay; assay type: functional, cell-based; conditions: HT-29, 72 h
# [2] = Cytotoxicity against human HCT116 cells assessed as growth inhibition after 72 hrs by Alamar Blue assay; assay type: functional, cell-based; conditions: HCT-116, 72 h
# [3] = Antitumor activity against human H3347 cells xenografted in nude mouse assessed as tumor growth inhibition at 30 mg/kg,iv qd administered for 6 days measured on day 15 relative to control; assay type: functional
# [4] = Antitumor activity against human PC3 cells xenografted in nude mouse assessed as tumor growth inhibition at 50 mg/kg,iv administered every 2 days for 5 doses measured on day 24 to 28 relative to control; assay type: functional, PC-3
# [5] = Antitumor activity against human HCT116 cells xenografted in nude mouse assessed as tumor growth inhibition at 30 mg/kg,iv qd administered for 6 days measured on day 31 relative to control; assay type: functional; conditions: HCT-116, iv, read-out: TGI
# [6] = Antitumor activity against human PC3 cells xenografted in nude mouse assessed as tumor growth inhibition at 40 mg/kg,iv administered every 2 days for 5 doses measured on day 38 relative to control; assay type: functional; conditions: PC-3, iv, read-out: TGI
# Mus musculus [7] = assay: Toxicity in nude mouse xenografted with human PC3 cells assessed as body weight loss at 40 mg/kg,iv administered every 2 days for 5 doses measured on day 16 relative to control; assay type: organism-based, PC-3; design: dose 40 mg/kg; conditions: in vivo, 48 h
# Mus musculus [8] = assay: Toxicity in nude mouse xenografted with human H460 cells assessed as body weight loss at 30 mg/kg,iv qd administered for 6 days measured on day 15 relative to control; assay type: organism-based; design: dose 30 mg/kg; conditions: in vivo, 144 h
# Mus musculus [9] = assay: Toxicity in nude mouse xenografted with human PC3 cells assessed as change in body weight at 30 mg/kg,iv qd administered for 6 days measured on day 31 relative to control; assay type: organism-based, PC-3; design: dose 30 mg/kg; conditions: in vivo, 144 h
# Mus musculus [10] = assay: Toxicity in nude mouse xenografted with human H460 cells assessed as body weight loss at 30 mg/kg,iv qd administered for 6 days measured on day 37 relative to control; assay type: organism-based; design: dose 30 mg/kg; conditions: in vivo, 144 h
# PC-3 [11] = assay: Antitumor activity against human PC3 cells xenografted in nude mouse assessed as survival at 40 mg/kg,iv administered every 2 days for 5 doses; assay type: functional, organism-based; design: dose 40 mg/kg
# PC-3 [12] = assay: Antitumor activity against human PC3 cells xenografted in nude mouse assessed as survival at 50 mg/kg,iv administered every 2 days for 5 doses; assay type: functional, organism-based; design: dose 50 mg/kg
# NCI-H460 = assay: Antitumor activity against human H460 cells xenografted in nude mouse assessed as survival at 30 mg/kg,iv qd administered for 6 days; assay type: functional, organism-based; design: dose 30 mg/kg
# PC-3 [13] = assay: Antitumor activity against human PC3 cells xenografted in iv dosed nude mouse assessed as tumor growth inhibition; assay type: functional, organism-based
# [14] = Cell cycle arrest in human HCT116 cells assessed as accumulation at sub-G1 phase at 1 uM after 24 hrs by FACS flow cytometric analysis (reference value: 1.37 +/- 0.95%); assay type: functional, cell-based; conditions: HCT-116
# [15] = Cell cycle arrest in human HCT116 cells assessed as accumulation at G2/M phase at 2 uM after 24 hrs by FACS flow cytometric analysis (reference value: 31.55 +/- 4.63%); assay type: functional, cell-based; conditions: HCT-116
# [16] = Cell cycle arrest in human HCT116 cells assessed as accumulation at sub-G1 phase at 4 uM after 24 hrs by FACS flow cytometric analysis (reference value: 1.37 +/- 0.95%); assay type: functional, cell-based; conditions: HCT-116
# [17] = Cell cycle arrest in human HCT116 cells assessed as accumulation at G1 phase at 4 uM after 24 hrs by FACS flow cytometric analysis (reference value: 48.75 +/- 3.69%); assay type: functional, cell-based; conditions: HCT-116
# [18] = Cell cycle arrest in human HCT116 cells assessed as accumulation at S phase at 4 uM after 24 hrs by FACS flow cytometric analysis (reference value: 18.71 +/- 2.25%); assay type: functional, cell-based; conditions: HCT-116
# [19] = Cell cycle arrest in human HCT116 cells assessed as accumulation at sub-G1 phase at 1 uM after 48 hrs by FACS flow cytometric analysis (reference value: 1.65 +/- 0.06%); assay type: functional, cell-based; conditions: HCT-116
# [20] = Cell cycle arrest in human HCT116 cells assessed as accumulation at G1 phase at 1 uM after 48 hrs by FACS flow cytometric analysis (reference value: 62.16 +/- 5.94%); assay type: functional, cell-based; conditions: HCT-116
# [21] = Cell cycle arrest in human HCT116 cells assessed as accumulation at G2/M phase at 1 uM after 48 hrs by FACS flow cytometric analysis (reference value: 23.95 +/- 1.87%); assay type: functional, cell-based; conditions: HCT-116
# [22] = Cell cycle arrest in human HCT116 cells assessed as accumulation at G2/M phase at 2 uM after 48 hrs by FACS flow cytometric analysis (reference value: 23.95 +/- 1.87%); assay type: functional, cell-based; conditions: HCT-116
# [23] = Cell cycle arrest in human HCT116 cells assessed as accumulation at G1 phase at 1 uM after 72 hrs by FACS flow cytometric analysis (reference value: 76.29 +/- 2.65%); assay type: functional, cell-based; conditions: HCT-116
# [24] = Cell cycle arrest in human HCT116 cells assessed as accumulation at S phase at 1 uM after 72 hrs by FACS flow cytometric analysis (reference value: 7.49 +/- 0.95%); assay type: functional, cell-based; conditions: HCT-116
# [25] = Cell cycle arrest in human HCT116 cells assessed as accumulation at G2/M phase at 2 uM after 72 hrs by FACS flow cytometric analysis (reference value: 12.82 +/- 2.19%); assay type: functional, cell-based; conditions: HCT-116
# HCT-116 [26] = assay: Induction of apoptosis in human HCT116 cells assessed as caspase-3 cleavage at 1 to 4 uM after 24 hrs by Western blot analysis; assay type: functional, cell-based
# HCT-116 [27] = assay: Induction of apoptosis in human HCT116 cells assessed as PARP cleavage at 1 to 4 uM after 24 hrs by Western blot analysis; assay type: functional, cell-based
# Mus musculus [28] = assay: Induction of apoptosis in HCT116 cells xenografted in nude mouse at 30 mg/kg, iv qd administered for 6 days measured 24 hrs post last dose by TUNEL assay; assay type: functional, organism-based; design: dose 30 mg/kg; conditions: HCT-116
# [29] = Terminal half life in Sprague-Dawley rat at 5 mg/kg, iv; assay type: ADME, organism-based; design: dose 5 mg/kg, route intravenous; conditions: in vivo, read-out: beta t1/2 (converted)
# [30] = Terminal half life in Sprague-Dawley rat at 50 mg/kg, po; assay type: ADME, organism-based; design: dose 50 mg/kg, route oral; conditions: in vivo, read-out: beta t1/2 (converted)
# Mus musculus [31] = assay: Toxicity in iv dosed CD-1 (ICR) mouse assessed as swelling of cheek measured for 14 days; assay type: organism-based; conditions: in vivo, 336 h
# Mus musculus [32] = assay: Toxicity in iv dosed CD-1 (ICR) mouse assessed as swelling of mouth measured for 14 days; assay type: organism-based; conditions: in vivo, 336 h
# Mus musculus [33] = assay: Toxicity in iv dosed CD-1 (ICR) mouse assessed as hunch posture measured for 14 days; assay type: organism-based; conditions: in vivo, 336 h
# Mus musculus [34] = assay: Toxicity in iv dosed CD-1 (ICR) mouse assessed as feces stain measured for 14 days; assay type: organism-based; conditions: in vivo, 336 h
# Mus musculus [35] = assay: Toxicity in CD-1 (ICR) mouse assessed as decrease in food consumption at 75 to 105 mg/kg, iv measured on day 8; assay type: organism-based; design: dose 75-105 mg/kg, route intravenous; conditions: in vivo
# Mus musculus [36] = assay: Toxicity in CD-1 (ICR) mouse assessed as gross lesions in spleen at 150 mg/kg, iv measured for 14 days; assay type: organism-based; design: dose 150 mg/kg, route intravenous; conditions: in vivo, 336 h
# [37] = Toxicity in iv dosed CD-1 (ICR) mouse measured for 14 days; assay type: organism-based; conditions: in vivo
smiles,measurement,setting,value
CCN(CC)CC(=O)Nc1ccc(NC(=O)Nc2ccc(N(CCCl)CCCl)cc2)cc1,pIC50,[1],5.45
same,pIC50,HT-29,4.72
same,pIC50,[2],6.09
same,%max,[3],94%
same,%max,[4],88%
same,inhibition in vivo at 30 mg/kg,[5],84%
same,inhibition in vivo at 40 mg/kg,[6],3%
same,%max,Mus musculus [7],-15%
same,%max,Mus musculus [8],-18%
same,Activity,Mus musculus [9],-28%
same,Activity,Mus musculus [10],-5%
same,Activity,PC-3 [11],Active
same,Activity,PC-3 [12],Active
same,Activity,NCI-H460,Active
same,TGI,PC-3 [13],Dose-dependent effect
same,Activity,[14],1.58%
same,Activity,[15],64.3%
same,Activity,[16],4.31%
same,Activity,[17],12.8%
same,Activity,[18],27.6%
same,Activity,[19],9.86%
same,Activity,[20],49.6%
same,Activity,[21],28.2%
same,Activity,[22],28.2%
same,Activity,[23],54.9%
same,Activity,[24],11.7%
same,Activity,[25],29.2%
same,Activity,HCT-116 [26],Active
same,Activity,HCT-116 [27],Active
same,Activity,Mus musculus [28],Active
same,half-life,[29],21.6 min
same,half-life,[30],60.6 min
same,Activity,Mus musculus [31],Dose-dependent effect
same,Activity,Mus musculus [32],Dose-dependent effect
same,Activity,Mus musculus [33],Dose-dependent effect
same,Activity,Mus musculus [34],Dose-dependent effect
same,Activity,Mus musculus [35],Toxic
same,Activity,Mus musculus [36],Toxic
same,LD50 at 336 h,[37],115 mg/kg
